Experimental data: ChEMBL document CHEMBL1135028, “Enantio-dependent binding and transactivation of optically active phenylpropanoic acid derivatives at human peroxisome proliferator-activated receptor alpha” (Bioorg Med Chem Lett, 2002)

Tests used:
[1] = target: T1, Peroxisome proliferator-activated receptor alpha (Homo sapiens, UniProt Q07869); test: Binding affinity of compound to human peroxisome proliferator-activated receptor alpha was determined by competitive binding assay
T1 sequence (Q07869 whole entry): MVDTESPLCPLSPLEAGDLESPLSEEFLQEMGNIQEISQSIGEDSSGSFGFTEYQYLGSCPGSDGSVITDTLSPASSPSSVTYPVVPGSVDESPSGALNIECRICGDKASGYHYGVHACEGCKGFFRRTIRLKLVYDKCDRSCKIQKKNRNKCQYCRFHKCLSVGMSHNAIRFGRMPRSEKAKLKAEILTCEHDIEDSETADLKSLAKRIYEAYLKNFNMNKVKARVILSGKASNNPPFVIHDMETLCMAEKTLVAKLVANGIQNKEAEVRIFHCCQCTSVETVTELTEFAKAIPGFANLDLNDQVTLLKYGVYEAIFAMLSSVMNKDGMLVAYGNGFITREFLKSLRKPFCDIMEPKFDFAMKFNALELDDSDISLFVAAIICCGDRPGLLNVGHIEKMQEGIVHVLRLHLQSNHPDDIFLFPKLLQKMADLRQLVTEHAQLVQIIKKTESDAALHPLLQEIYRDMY

[2] = target: T1, Peroxisome proliferator-activated receptor alpha; test: Compound was tested for half maximum transactivation activity of human peroxisome proliferator-activated receptor alpha; assay type: functional

EC50 [1] | EC50 [2] | SMILES
740 nM | – | CC[C@@H](Cc1ccc(OC)c(C(=O)NCc2ccc(C(F)(F)F)cc2)c1)C(=O)O
24000 nM | 1500 nM | CC[C@H](Cc1ccc(OC)c(C(=O)NCc2ccc(C(F)(F)F)cc2)c1)C(=O)O
